Experimental data published in patent publication EP0106793A1, “7-Alpha-alkyl-17-alpha-pregn-4-ene-21,17-carbolactones and -21-carboxylic acid salts and procedures for manufacturing them and pharmaceutical preparations containing them” (SCHERING AKTIENGESELLSCHAFT, priority 1982, dated 1984).

Tested on: aldosterone
Test: antialdosterone effect, experimental model by Hollmann
Assay type: in vivo
Details: relative to spironolactone = 1
Method: The antialdosterone effect was determined and measured in an experimental model by Hallmann (G. Hollmann et al, Tubular Effects and Renal Elimination of Spirono- lactones, Naunyn-Schmiedebergs Arch. Exp. Path. Pharmak. 247 (1964), p 419; P. Marx, Renal Effects of d-aldosterone and Its Antagonist Spironolactone, Diss. Med. Fak. FU Berlin, 1966 whose disclosure is incorporated by references herein).

## CC(=O)S[C@@H]1CC2=CC(=O)CC[C@]2(C)[C@H]2CC[C@@]3(C)[C@@H](CC[C@@]34CCC(=O)O4)[C@H]12 [spironolactone]
  relative values of the degree of antialdosterone effect: 1
